Results published in patent US9024071B2, “Therapeutic compounds” (University of Florida Research Foundation, Inc., priority 2009, dated 2015).
Entries after “also recorded” stand apart in the source; their conditions may differ.

Experiments:
[1] = molecular target: T1, 5HT2A (Homo sapiens, UniProt P28223); experiment: Radioreceptor competition/saturation binding, 5HT2A ([3H]-ketanserin); details: competitive binding; for nH: Hill slope; for Ki: wild type receptor transiently expressed (FIG. 1: HEK 293 cells)
T1 sequence (P28223 whole entry): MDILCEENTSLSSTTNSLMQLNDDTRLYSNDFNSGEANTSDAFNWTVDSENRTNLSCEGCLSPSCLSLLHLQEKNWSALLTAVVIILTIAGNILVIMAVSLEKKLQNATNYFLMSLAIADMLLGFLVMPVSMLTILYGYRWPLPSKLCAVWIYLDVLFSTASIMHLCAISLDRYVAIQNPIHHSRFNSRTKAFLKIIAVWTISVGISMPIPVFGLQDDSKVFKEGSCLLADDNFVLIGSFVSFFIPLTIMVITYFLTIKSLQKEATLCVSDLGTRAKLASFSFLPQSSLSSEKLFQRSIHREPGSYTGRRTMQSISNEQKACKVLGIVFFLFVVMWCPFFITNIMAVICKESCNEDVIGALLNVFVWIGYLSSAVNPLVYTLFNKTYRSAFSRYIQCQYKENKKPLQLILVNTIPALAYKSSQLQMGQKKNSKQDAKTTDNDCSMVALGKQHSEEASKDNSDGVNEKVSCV
Experimental: (§1) Cells are grown at 37° C. in a humidified incubator with 5% CO2. The cDNAs encoding the human 5-HT2A, 5-HT2B, and 5-HT2C receptors (wild type) are purchased from UMR (Rolla, Mo.) for transient transfection of the clonal cells. For radioreceptor binding assays, 5-HT2A, 5-HT2B, and 5-HT2C receptor membranes are prepared from transfected CHO-K1 cells. For functional assays measuring activity of PLC/IP formation, transfected CHO-K1 cells are used for 5-HT2A and 5-HT2C receptors. […] Twenty-four hours before transfection, cells are seeded at 40% confluence in 100 mm dishes for radioreceptor binding assays or at 10^5 cells per well in 12-well plates for functional assays. CHO-K1 cells are transiently transfected with 12 μg of plasmid and 32 μl of lipofectamine (Invitrogen) per 100 mm dish for radioreceptor binding assays, or, 0.8 μg plasmid and 4.0 μl of lipofectamine per well for functional assays. For 5-HT2B functional assays using HEK cells, 24 μg plasmid DNA is mixed with 60 μl of Lipofectamine 2000 (Invitrogen) to transfect 1-2×10^6 cells in a 10-cm plate. Cells are allowed to express transfected receptors for another 24 hrs (Herrick, 1997).
(§2) Radioreceptor saturation and competition binding assays are performed using membrane homogenates, similar to our methods reported previously for the phylogenetically closely related histamine H1 GPCR (Booth, 2002; Moniri et al., 2004). […] Briefly, forty-eight hours following CHO cell transfection, cells are harvested and homogenized in 50 mM Tris-HCl containing 0.1% ascorbic acid and 4.0 mM CaCl2 at pH 7.4 (assay buffer). The homogenate is centrifuged at 35,000 g for 25 min and the resulting membrane pellet is re-suspended in assay buffer. Protein concentration is determined by the method of Lowry et al. (Lowry, 1951). […] Incubation of radioreceptor binding assay mixtures is for 1.0 h at 37° C., with termination by rapid filtration through Whatman GF/B filters using a 96-well cell harvester (Tomtec, Hamden, Conn.). The membrane-bound [^3H]-radioligand retained on the filter discs is quantified by liquid scintillation spectrometry. Data are analyzed by nonlinear regression using the sigmoidal curve-fitting algorithms in Prism 4.03 (GraphPad Software Inc., San Diego, Calif.). Ligand affinity is expressed as an approximation of Ki values by conversion of the IC50 data to K0.5 values using the equation K0.5=IC50/1+L/KD, where L is the concentration of radioligand having affinity KD (Cheng, 1973).

[2] = molecular target: T2, 5HT2B (Homo sapiens, UniProt P41595); experiment: Radioreceptor competition/saturation binding, 5HT2B ([3H]-mesulergine); details: competitive binding; for nH: Hill slope; for Ki: wild type receptor transiently expressed (FIG. 1: HEK 293 cells)
T2 sequence (P41595 whole entry): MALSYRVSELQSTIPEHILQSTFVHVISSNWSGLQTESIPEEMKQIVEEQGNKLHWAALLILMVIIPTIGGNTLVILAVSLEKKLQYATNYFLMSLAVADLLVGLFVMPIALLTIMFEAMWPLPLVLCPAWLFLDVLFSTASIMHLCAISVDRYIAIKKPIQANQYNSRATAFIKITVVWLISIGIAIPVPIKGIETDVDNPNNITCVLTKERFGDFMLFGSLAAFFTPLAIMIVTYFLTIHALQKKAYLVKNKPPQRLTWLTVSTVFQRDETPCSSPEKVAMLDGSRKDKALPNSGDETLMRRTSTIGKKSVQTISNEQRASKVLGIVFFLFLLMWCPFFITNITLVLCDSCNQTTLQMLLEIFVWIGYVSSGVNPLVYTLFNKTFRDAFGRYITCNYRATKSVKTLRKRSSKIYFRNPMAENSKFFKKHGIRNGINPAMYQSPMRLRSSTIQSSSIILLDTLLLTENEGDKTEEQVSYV
Experimental: as §1, §2

[3] = molecular target: T3, 5HT2C (Homo sapiens, UniProt P28335); experiment: Radioreceptor competition/saturation binding, 5HT2C ([3H]-mesulergine); details: competitive binding; for nH: Hill slope; for Ki: wild type receptor transiently expressed (FIG. 1: HEK 293 cells)
T3 sequence (P28335 33-458): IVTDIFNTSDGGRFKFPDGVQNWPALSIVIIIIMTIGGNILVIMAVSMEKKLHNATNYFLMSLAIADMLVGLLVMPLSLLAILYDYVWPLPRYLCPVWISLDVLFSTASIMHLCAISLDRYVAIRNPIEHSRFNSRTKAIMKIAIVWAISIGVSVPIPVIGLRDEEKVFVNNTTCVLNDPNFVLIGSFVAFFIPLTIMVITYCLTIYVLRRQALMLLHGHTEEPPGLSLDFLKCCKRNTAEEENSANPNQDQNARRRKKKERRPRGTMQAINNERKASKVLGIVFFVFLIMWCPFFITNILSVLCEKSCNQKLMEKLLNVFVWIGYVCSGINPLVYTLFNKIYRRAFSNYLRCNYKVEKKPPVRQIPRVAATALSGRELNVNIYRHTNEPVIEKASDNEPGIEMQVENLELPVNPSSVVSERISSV
Experimental: as §1, §2

[4] = molecular target: T4, Histamine H1 WT (Homo sapiens, UniProt P35367); experiment: Competitive binding, histamine H1 receptor; details: Hill slope
T4 construct: expressed in transfected cells
T4 sequence (P35367 whole entry): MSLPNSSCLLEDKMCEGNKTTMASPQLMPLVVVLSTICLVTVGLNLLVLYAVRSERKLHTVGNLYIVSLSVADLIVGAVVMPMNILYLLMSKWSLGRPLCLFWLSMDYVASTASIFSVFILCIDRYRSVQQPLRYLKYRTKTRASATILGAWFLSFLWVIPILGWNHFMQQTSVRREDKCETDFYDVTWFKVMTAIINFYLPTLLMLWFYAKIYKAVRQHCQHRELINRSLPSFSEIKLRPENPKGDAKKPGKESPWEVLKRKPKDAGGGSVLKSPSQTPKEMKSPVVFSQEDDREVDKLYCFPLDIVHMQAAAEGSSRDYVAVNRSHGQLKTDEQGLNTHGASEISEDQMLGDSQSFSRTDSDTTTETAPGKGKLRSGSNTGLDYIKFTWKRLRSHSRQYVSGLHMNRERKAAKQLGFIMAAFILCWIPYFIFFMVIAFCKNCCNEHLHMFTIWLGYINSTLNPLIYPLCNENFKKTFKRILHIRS
Experimental: as §2

[5] = molecular target: T1, 5HT2A; experiment: PLC activity/[3H]-IP formation, 5HT2A; type: cell-based
Experimental: (§3) Cells are grown at 37° C. in a humidified incubator with 5% CO2. The cDNAs encoding the human 5-HT2A, 5-HT2B, and 5-HT2C receptors (wild type) are purchased from UMR (Rolla, Mo.) for transient transfection of the clonal cells. For radioreceptor binding assays, 5-HT2A, 5-HT2B, and 5-HT2C receptor membranes are prepared from transfected CHO-K1 cells. For functional assays measuring activity of PLC/IP formation, transfected CHO-K1 cells are used for 5-HT2A and 5-HT2C receptors. For 5HT2B receptors, however, more robust and consistent results for the PLC/IP assay are obtained using transfected HEK cells (Setola et al., 2005). Twenty-four hours before transfection, cells are seeded at 40% confluence in 100 mm dishes for radioreceptor binding assays or at 10^5 cells per well in 12-well plates for functional assays. CHO-K1 cells are transiently transfected with 12 μg of plasmid and 32 μl of lipofectamine (Invitrogen) per 100 mm dish for radioreceptor binding assays, or, 0.8 μg plasmid and 4.0 μl of lipofectamine per well for functional assays. For 5-HT2B functional assays using HEK cells, 24 μg plasmid DNA is mixed with 60 μl of Lipofectamine 2000 (Invitrogen) to transfect 1-2×10^6 cells in a 10-cm plate. Cells are allowed to express transfected receptors for another 24 hrs (Herrick, 1997).
(§4) Functional activation of PLC is measured as [^3H]-IP formation in CHO cells transiently expressing serotonin 5-HT2C receptors or HEK cells transiently expressing serotonin 5-HT2A or 5-HT2B receptors, as previously reported (Moniri et al., 2004). Briefly, thirty-two hours following transfection, cells in inositol-free Dulbecco's modified Eagle's medium (DMEM) are incubated for twelve hours with 1.0 μCi/ml myo-[2-^3H]-inositol, the radiolabeled precursor of the PLC-β substrate phosphatidylinositol. […]
(§5) Functional activation of PLC is measured as [^3H]-IP formation in CHO cells transiently expressing 5-HT2A or 5-HT2C receptors and HEK cells transiently expressing 5HT2B receptors, as previously reported by our lab (Booth, 2002; Moniri et al., 2004). […]

[6] = molecular target: T2, 5HT2B; experiment: PLC activity/[3H]-IP formation, 5HT2B; type: cell-based
Experimental: as §1

[7] = molecular target: T3, 5HT2C; experiment: PLC activity/[3H]-IP formation, 5HT2C; type: cell-based
Experimental: as §3, §4, §5

[8] = molecular target: Histamine H1 receptor (Homo sapiens, UniProt P35367); experiment: Histamine H1 receptor-mediated stimulation of PLC activity/[3H]-IP formation; type: cell-based; details: against histamine activation
Chain of Histamine H1 receptor (P35367 whole entry): as above

[9] = molecular target: RSK 1 (Homo sapiens, UniProt Q15418); experiment: Kinase affinity panel (labeled tag binding), RSK 1; details: at 1.0 uM CAT
Chain of RSK 1 (Q15418 whole entry): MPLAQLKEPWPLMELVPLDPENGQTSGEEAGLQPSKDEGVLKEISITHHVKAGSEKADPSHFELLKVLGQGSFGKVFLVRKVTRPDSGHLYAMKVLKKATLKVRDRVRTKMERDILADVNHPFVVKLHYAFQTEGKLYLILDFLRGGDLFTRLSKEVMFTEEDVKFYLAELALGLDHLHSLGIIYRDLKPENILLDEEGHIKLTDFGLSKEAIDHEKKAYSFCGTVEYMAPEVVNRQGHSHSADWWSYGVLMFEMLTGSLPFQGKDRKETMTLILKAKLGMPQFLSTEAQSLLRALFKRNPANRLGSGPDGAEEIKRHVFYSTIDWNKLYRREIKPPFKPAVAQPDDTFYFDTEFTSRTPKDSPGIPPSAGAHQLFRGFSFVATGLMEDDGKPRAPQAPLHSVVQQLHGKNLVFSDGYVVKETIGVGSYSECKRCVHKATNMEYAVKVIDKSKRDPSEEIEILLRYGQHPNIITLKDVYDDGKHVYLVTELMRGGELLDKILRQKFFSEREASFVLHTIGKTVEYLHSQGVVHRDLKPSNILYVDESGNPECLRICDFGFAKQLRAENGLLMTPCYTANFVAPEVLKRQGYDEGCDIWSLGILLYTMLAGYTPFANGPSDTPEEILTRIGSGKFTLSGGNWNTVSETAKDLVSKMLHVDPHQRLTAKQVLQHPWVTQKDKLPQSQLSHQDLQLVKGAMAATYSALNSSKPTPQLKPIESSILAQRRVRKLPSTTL

[10] = molecular target: RSK 2 (Homo sapiens, UniProt P51812); experiment: Kinase affinity panel (labeled tag binding), RSK 2; details: at concentrations up to 1.0 uM
Chain of RSK 2 (P51812 whole entry): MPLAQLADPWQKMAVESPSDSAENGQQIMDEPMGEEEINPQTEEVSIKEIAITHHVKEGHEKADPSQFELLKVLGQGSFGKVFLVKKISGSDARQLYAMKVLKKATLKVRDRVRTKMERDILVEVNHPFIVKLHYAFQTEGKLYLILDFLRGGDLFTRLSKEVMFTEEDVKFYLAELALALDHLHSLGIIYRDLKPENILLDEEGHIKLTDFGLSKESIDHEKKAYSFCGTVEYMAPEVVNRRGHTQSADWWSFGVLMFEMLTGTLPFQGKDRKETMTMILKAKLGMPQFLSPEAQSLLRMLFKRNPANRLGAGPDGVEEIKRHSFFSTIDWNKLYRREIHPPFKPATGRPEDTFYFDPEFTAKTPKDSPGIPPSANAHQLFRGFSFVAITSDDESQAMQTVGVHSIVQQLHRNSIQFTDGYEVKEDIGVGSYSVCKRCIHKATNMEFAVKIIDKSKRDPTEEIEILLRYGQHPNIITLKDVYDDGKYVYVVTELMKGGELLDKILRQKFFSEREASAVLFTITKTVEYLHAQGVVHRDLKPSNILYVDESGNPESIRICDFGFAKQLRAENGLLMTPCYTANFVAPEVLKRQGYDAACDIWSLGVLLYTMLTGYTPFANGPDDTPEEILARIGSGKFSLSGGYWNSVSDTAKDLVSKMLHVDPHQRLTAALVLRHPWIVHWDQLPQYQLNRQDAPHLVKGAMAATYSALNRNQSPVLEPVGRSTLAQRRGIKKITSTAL

[11] = molecular target: RSK 3 (Homo sapiens, UniProt Q15349); experiment: Kinase affinity panel (labeled tag binding), RSK 3; details: at 1.0 uM CAT
Chain of RSK 3 (Q15349 whole entry): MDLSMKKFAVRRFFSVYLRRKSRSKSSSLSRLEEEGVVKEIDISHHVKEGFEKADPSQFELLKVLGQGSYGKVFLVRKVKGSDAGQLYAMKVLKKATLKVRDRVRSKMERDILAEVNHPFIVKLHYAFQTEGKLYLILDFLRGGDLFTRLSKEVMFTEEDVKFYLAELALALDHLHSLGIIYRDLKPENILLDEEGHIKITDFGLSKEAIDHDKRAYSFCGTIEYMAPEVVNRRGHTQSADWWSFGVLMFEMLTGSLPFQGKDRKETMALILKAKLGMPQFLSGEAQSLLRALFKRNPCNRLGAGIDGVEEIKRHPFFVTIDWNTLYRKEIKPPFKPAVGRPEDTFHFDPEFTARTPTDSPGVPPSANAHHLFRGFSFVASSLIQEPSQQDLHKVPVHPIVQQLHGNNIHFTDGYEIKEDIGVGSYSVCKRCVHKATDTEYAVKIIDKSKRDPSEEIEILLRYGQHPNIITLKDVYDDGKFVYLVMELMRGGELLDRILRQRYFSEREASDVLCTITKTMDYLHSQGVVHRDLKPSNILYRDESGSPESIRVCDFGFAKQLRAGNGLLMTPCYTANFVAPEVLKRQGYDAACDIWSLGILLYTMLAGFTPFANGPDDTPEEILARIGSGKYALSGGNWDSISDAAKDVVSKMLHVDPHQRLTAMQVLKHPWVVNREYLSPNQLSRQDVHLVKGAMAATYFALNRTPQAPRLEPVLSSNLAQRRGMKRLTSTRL

[12] = molecular target: RSK 4 (Homo sapiens, UniProt Q9UK32); experiment: Kinase affinity panel (labeled tag binding), RSK 4; details: at 1.0 uM CAT
Chain of RSK 4 (Q9UK32 whole entry): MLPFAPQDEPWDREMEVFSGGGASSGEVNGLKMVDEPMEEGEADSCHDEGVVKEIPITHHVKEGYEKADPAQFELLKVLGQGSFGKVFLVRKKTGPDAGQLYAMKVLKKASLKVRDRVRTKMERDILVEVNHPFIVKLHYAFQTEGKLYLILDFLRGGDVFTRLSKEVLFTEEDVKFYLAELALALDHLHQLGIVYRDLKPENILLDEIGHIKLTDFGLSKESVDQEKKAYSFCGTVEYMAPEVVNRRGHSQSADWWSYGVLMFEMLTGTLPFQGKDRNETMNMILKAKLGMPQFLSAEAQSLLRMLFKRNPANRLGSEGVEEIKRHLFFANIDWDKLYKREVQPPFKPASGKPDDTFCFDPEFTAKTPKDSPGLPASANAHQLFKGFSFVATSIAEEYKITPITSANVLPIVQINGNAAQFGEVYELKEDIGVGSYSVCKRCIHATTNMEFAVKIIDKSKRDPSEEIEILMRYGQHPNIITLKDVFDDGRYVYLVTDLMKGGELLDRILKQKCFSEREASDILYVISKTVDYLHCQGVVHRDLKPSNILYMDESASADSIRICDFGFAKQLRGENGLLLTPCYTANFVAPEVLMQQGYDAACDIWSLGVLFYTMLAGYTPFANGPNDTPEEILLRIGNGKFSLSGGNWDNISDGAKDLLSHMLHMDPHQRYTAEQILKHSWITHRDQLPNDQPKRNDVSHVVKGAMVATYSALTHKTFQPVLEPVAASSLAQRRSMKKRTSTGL

[13] = system: 438 other kinases; experiment: Kinase affinity panel (labeled tag binding), other kinases; details: at concentrations up to 1.0 uM
[14] = system: cocaine self-administration; details: rat; cited from earlier work
[15] = molecular target: T3, 5HT2C; details: cited from earlier work
[16] = inhibition of basal (constitutive) [3H]-IP formation

Structure (SMILES) | nH [1] | Ki [1] [nM] | nH [2] | Ki [2] [nM] | nH [3] | Ki [3] [nM] | nH [4] | rate of cocaine self-administration [14] | further results
CN(C)[C@H]1Cc2ccccc2[C@H](C2CCCCC2)C1 [(+)-trans-CAT, (+)-(2R,4S)-4-cyclohexyl-N,Ndimethyl-1,2,3,4-tetrahydronaphthalen-2-amine] | 0.77 ± 0.20 | 78.2 ± 4 | 0.75 ± 0.12 | 1010 ± 140 | 1.20 ± 0.26 | 28.9 ± 4.4 | 1.02 ± 0.00 |  | 
CN(C)[C@@H]1Cc2ccccc2[C@@H](C2CCCCC2)C1 [(−)-trans-CAT, (−)-(2S,4R)-4-cyclohexyl-N,N-dimethyl-1,2,3,4-tetrahydronaphthalen-2-amine] | 1.26 ± 0.01 | 1.61 ± 0.05 | 0.81 ± 0.02 | 23.7 ± 0.79 | 1.13 ± 0.18 | 13.7 ± 2.17 | 1.01 ± 0.05 |  | Kind of functional activity, PLC activity/IP formation [5]: inverse agonist; PLC/IP formation IMAX [5]: 48.45 ± 5.50 % Basal; IC50 [5, 16]: 130 ± 20 nM; Kind of functional activity, PLC activity/IP formation [6]: inverse agonist; PLC/IP formation IMAX [6]: 56.80 ± 2.13 % Basal; IC50 [6, 16]: 250 ± 30 nM; Kind of functional activity, PLC activity/IP formation [7]: inverse agonist; PLC/IP formation IMAX [7]: 60.65 ± 2.94 % Basal; IC50 [7, 16]: 190 ± 40 nM; PLC/IP formation, kind of activity at H1 [8]: competitively antagonized; also recorded: Competitive; inhibition of tag binding [9]: 20%; binding to RSK 2 [10]: did not exhibit similarly significant binding; inhibition of labeled tag binding [11]: 80%; inhibition of labeled tag binding [12]: 80%; binding to 438 other kinases [13]: did not exhibit as significant binding
COc1cccc([C@H](O)C2CCN(CCc3ccc(F)cc3)CC2)c1OC [M100907] |  |  |  |  |  |  |  | does not alter responding rate | 
Cc1cc2c(cc1Cl)N(C(=O)Nc1ccc(Oc3cccnc3C)nc1)CC2 [SB242084] |  |  |  |  |  |  |  | increases the rate of cocaine self-administration dose-dependently | 
C[C@H]1CNCCc2ccc(Cl)cc21 [lorcaserin, Lorcaserin] |  |  |  |  |  |  |  |  | selectivity for activation of 5HT2C receptors over 5HT2A receptors [15]: 15 fold
